Results published in ChEMBL document CHEMBL1155545, “Design, synthesis and evaluation of 2,4-disubstituted pyrimidines as cholinesterase inhibitors” (Bioorg Med Chem Lett, 2010).

Assays:
Acetylcholinesterase = Acetylcholinesterase (Electrophorus electricus, UniProt O42275)
Description: Inhibition of electric eel AChE

Cholinesterase = Cholinesterase (Equus caballus, UniProt P81908)
Chain of Cholinesterase (P81908 whole entry): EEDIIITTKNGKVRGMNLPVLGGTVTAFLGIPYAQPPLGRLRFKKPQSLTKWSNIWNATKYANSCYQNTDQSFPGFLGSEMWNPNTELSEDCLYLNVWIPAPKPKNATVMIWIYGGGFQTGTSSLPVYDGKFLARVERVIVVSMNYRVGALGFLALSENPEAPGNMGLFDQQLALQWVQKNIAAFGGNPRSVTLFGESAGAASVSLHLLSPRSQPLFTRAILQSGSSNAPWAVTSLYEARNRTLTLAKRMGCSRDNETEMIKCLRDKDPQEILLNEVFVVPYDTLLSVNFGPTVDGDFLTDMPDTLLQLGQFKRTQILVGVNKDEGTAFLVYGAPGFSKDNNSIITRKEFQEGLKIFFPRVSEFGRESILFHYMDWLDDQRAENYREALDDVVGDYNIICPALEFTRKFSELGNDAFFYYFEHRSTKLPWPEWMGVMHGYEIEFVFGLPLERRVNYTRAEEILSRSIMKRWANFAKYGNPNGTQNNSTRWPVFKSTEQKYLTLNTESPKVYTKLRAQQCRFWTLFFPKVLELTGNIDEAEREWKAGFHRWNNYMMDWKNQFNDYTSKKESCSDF
Description: Inhibition of equine serum BuChE

Chain of Acetylcholinesterase (O42275 whole entry): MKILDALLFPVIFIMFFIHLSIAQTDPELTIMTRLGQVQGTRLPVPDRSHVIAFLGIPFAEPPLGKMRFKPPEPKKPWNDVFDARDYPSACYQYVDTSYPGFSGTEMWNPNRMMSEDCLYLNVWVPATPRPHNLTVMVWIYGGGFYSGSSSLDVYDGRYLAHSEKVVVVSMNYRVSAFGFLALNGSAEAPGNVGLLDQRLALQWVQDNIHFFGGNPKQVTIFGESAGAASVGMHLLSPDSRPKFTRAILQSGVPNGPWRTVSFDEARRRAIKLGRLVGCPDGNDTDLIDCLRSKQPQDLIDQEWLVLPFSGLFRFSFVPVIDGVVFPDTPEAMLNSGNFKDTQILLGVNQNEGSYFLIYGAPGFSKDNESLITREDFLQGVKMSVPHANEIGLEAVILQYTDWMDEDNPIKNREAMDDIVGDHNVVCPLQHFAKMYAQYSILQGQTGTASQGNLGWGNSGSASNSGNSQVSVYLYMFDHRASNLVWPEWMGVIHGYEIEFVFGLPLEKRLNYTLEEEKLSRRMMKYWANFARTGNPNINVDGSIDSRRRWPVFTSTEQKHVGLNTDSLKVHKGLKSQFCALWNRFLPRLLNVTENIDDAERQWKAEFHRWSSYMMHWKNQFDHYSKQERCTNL

| Compound | IC50 (Acetylcholinesterase) [µM] | IC50 (Cholinesterase) [µM] |
| --- | --- | --- |
| CC1CCN(c2nccc(NCc3ccccc3)n2)CC1 | 0.39 | 2.9 |
| c1ccc(CCNc2ccnc(N3CCSCC3)n2)cc1 | 25 | > 100 |
| CN1CCN(c2nccc(NCCc3ccccc3)n2)CC1 | 14.4 | > 100 |
| CC1CCN(c2nccc(NCCc3ccccc3)n2)CC1 | 7.9 | 17.7 |
| c1ccc2c(CNc3ccnc(N4CCCC4)n3)cccc2c1 | 5.8 | 8.9 |
| c1ccc2c(CNc3ccnc(N4CCOCC4)n3)cccc2c1 | 15.7 | 28 |
| c1ccc2c(CNc3ccnc(N4CCSCC4)n3)cccc2c1 | 15.5 |  |
| CN1CCN(c2nccc(NCc3cccc4ccccc34)n2)CC1 | 17.6 | 2.6 |
| CN1CCN(c2nccc(NCc3ccccc3)n2)CC1 | 0.56 | > 100 |
| c1ccc(CCNc2ccnc(N3CCOCC3)n2)cc1 | 4.8 | > 100 |
| c1ccc(CNc2ccnc(N3CCCC3)n2)cc1 | 9.8 | 26.4 |
| c1ccc(CNc2ccnc(N3CCOCC3)n2)cc1 | 0.5 |  |
| c1ccc(CNc2ccnc(N3CCSCC3)n2)cc1 | 0.33 | 2.3 |
| c1ccc2c(NCCCCCCCNc3c4c(nc5ccccc35)CCCC4)c3c(nc2c1)CCCC3 | 0.0018 | 0.0105 |
